Experimental data as given in patent US20230183265A1, “Crystal Form of Macrocyclic Tyrosine Kinase Inhibitor and Preparation Method therefor” (SHANDONG XUANZHU PHARMA CO., LTD., priority 2020, published 2023).
Values belong to the compound of their own block, whether it stands above or below them.

How the values were obtained:
[1] = test system: xenograft tumor of BaF3 LMNA-NTRK1-G595R stably transfected cell line; assay: Efficacy study on BaF3 LMNA-NTRK1-G595R stable cell strain subcutaneous xenograft model; type: in vivo, mouse (NOD-SCID); settings: bid, p.o., 7 days
Method: Test substance: the compound represented by Formula (I), prepared according to the method in Embodiment 1.
A BaF3LMNA-NTRK1-G595R stably transfected cell line resuspended in a RPM11640 serum-free medium was inoculated subcutaneously on a right scapula of a mouse (nonobese diabetic-severe combined immunodeficiency disease (NOD-SCID)) at 1×10^6 cells/mouse (0.1 ml/mouse).
3.2 Grouping Administration
While the average tumor volume was about 500 mm^3, it was randomly divided into a vehicle group, a compound represented by Formula (I) (10/5/3/1 mg/kg, bid) group and a LOXO-195 group (30/10/3 mg/kg, bid).
3.3 Experimental Evaluation Index
1) Tumor growth inhibition rate TGI (%) • TGI (%)=(1−T/C)×100%
2) Tumor volume ratio of Treatment group/Control group TIC (%) • TIC (%)=TRTV/CRTV×100% • RTV=Vt/V0, herein Vt is the tumor volume on the t-th day after grouping, and V0 is the tumor volume on the day of grouping; TRTV: the average relative tumor volume in the administration group; and CRTV: the average relative tumor volume in the vehicle control group.

[2] = test system: Ba/F3 ETV6-NTRK3-G623R cell line; assay: In vitro cytological inhibitory activity (CelltiterGlo assay); type: cell-based; settings: Mus musculus, BaF3, 72 hours
From the text: (§1) Test compound: the compound represented by Formula (I), prepared according to the method in Embodiment 1.
(§2) The meanings of cell lines used in the experiment are as follows: • Ba/F3 LMNA-NTRK1-G595R cell line: • A stably expressed cell line of Ba/F3 cells transfected with LMNA-NTRK1 G595R; and • Ba/F3 ETV6-NTRK3-G623R cell line: • A stably expressed cell line of Ba/F3 cells transfected with ETV6-NTRK3-G623R.
(§3) Experimental Method (CelltiterGlo Assay)
(§4) 1. Cell Culture and Inoculation
(§5) All cells were suspension cells, and all culture mediums were RPM1-1640+10% FBS. The cells were tested in a logarithmic growth phase.
(§6) The cells in the logarithmic growth phase were collected and counted by a […]. A trypan blue exclusion method was used to detect the cell activity, to ensure that the cell activity was above 90%. It was adjusted to the appropriate concentration, and 90 μL of cell suspension was respectively added to a 96-well plate.
(§7) 2. Preparation of Test Compound
(§8) “M” means “mol/L”, “mM” means “mmol/L”, and “μM” means “μmol/L”. […]
(§9) A CellTiter-Glo luminescent cell viability assay (CTG) reagent was molten and a cell plate was balanced to a room temperature for 30 minutes. […] The light signal value was read by a multifunctional microplate reader.
(§10) 1) Inhibition rate (%)=(DMSO solvent control well reading−test compound well reading)/(DMSO solvent control well reading−blank well reading)×[…]; and […]

[3] = test system: Ba/F3 LMNA-NTRK1-G595R cell line; assay: as above; type: cell-based; settings: Mus musculus, BaF3, 72 hours
From the text: as §1, §2, §3, §4, §5, §6, §7, §8, §9, §10

[4] = test system: Ba/F3 SLC34A2/ROS1-G2032R cell line; assay: In vitro cytological inhibitory activity (Celltiter-Glo assay); type: cell-based; settings: Mus musculus, BaF3, 72 hours
Method: as §1
The meanings of cell lines used in the experiment are as follows: • Ba/F3 SLC34A2/ROS1-G2032R cell line: • A stably expressed cell line of Ba/F3 cells transfected with SLC34A2/ROS1-G2032R.
Experimental Method (Celltiter-Glo Assay)
as §4, §5
as §6, with “activity, as” for “activity,”
as §7
2.2 Preparation of Working Stock Solution of Test Compound […]
A CTG reagent was molten and a cell plate was balanced to a room temperature for 30 minutes. […] The light signal value was read by a multifunctional microplate reader.
1) Cell survival rate (%)=(test compound well reading−blank well reading)/(DMSO solvent control well reading−blank well reading)×100%; and […]

[5] = Hygroscopicity test of crystal form II; type: physicochemical
Method: 2. Hygroscopicity Test of Crystal Form II
Test sample: the crystal form II of the compound represented by Formula (I).
Test method: it was determined according to the general rule 9103 (guidelines of drug hygroscopicity test) of the Chinese Pharmacopoeia (2015 Edition, Part IV): the test sample was placed under the condition of 25° C. and RH80% for 24 h (a sample bottle was placed under this condition for 24 h in advance), and results were shown in Table 2: […]

[6] = Stability test of crystal form II; type: physicochemical
Method: Test sample: the crystal form II of the compound represented by Formula (I)
Test method: a suitable amount of the test samples was respectively weighed, and the appearance, moisture, content, related substances, XRD, and DSC of the test samples were investigated after being placed under the following conditions. The placing conditions were as follows.
Under the conditions of 60° C.±2° C., or of 25° C. RH92.5%, it was placed for 10 days, opened/closed, and a sample was taken for testing on the 10th day (the opened package is a flat weighing bottle, and the closed package is a low-density polyethylene bag or low-density polyethylene bag+composite film bag.
Under the conditions of 40° C. RH75%, it was placed for one month, opened/closed, and a sample was taken for testing after one month (the opened package is the flat weighing bottle, and the closed package is the low-density polyethylene bag or low-density polyethylene bag+composite film bag).
Moisture: it was determined according to the first 2 coulometric titration of the general rule 0832 (moisture determination) of the Chinese Pharmacopoeia (2015 Edition, Part IV).
XRD: it was determined according to the general rule 0451 (X-ray diffraction) of the Chinese Pharmacopoeia (2015 Edition, Part IV).
DSC: it was determined at a heating rate of 3° C./min, from 100° C. to 200° C.
Related substances and content: it was determined according to the general rule 0512 (HPLC) of the Chinese Pharmacopoeia (2015 Edition, Part IV).

[7] = 25° C. RH 92.5% 10 days, Opened
[8] = 25° C. RH 92.5% 10 days, Polyethylene bag
[9] = 25° C. RH 92.5% 10 days, Polyethylene bag + composite film bag
[10] = 40° C. RH 75% 1M, Polyethylene bag
[11] = 40° C. RH 75% 1M, Polyethylene bag + composite film bag
[12] = 60° C. 10 days, Polyethylene bag
[13] = 60° C. 10 days, Polyethylene bag + composite film bag

- IC50 [2]: 1 nM
- IC50 [3]: 0.6 nM
- IC50 [4]: 2.3 nM
Compound: C[C@@H]1COc2ncc(F)cc2[C@H]2CCCN2c2ccc3ncn(c3n2)C(=O)N1 [Compound represented by Formula (I), (2^2R, 6R)-3^5-fluoro-6-methyl-1^3H-4-oxa-7-aza-1(5,3)-imidazo[4,5-b]pyridina-3(3,2)-pyridina-2(1,2)-pyrrolidina cyclooctaphan-8-one]
- T/C ([1]; experiment 1, 3 mg/Kg): 73.2%
- TGI ([1]; experiment 1, 3 mg/Kg): 26.8%
- T/C ([1]; experiment 2, 1 mg/Kg): 53.7%
- TGI ([1]; experiment 2, 1 mg/Kg): 46.3%
- T/C ([1]; experiment 2, 5 mg/Kg): 0%
- TGI ([1]; experiment 2, 5 mg/Kg): 100%
- T/C ([1]; experiment 2, 10 mg/Kg): 0%
- TGI ([1]; experiment 2, 10 mg/Kg): 100%

- Moisture absorption weight gain ([5]; 25° C. RH80% placing for 1 day): 0.002%
- hygroscopicity (in words) ([5]; 25° C. and RH80% for 24 h): no or almost no hygroscopicity
- Appearance ([6]; 0 day): Off-white
- Content ([6]; 0 day): 100.4%
- DSC ([6]; 0 day): 162.32 °C
- Moisture ([6]; 0 day): 0.088%
- Total related substance ([6]; 0 day): 0.09%
- Appearance [6, 7]: Off-white
- Content [6, 7]: 99.6%
- DSC [6, 7]: 162.23 °C
- Moisture [6, 7]: 0.13%
- Total related substance [6, 7]: 0.11%
- XRD [6, 7]: Same
- Appearance [6, 8]: Off-white
- Content [6, 8]: 99.5%
- DSC [6, 8]: 162.23 °C
- Moisture [6, 8]: 0.11%
- Total related substance [6, 8]: 0.10%
- XRD [6, 8]: Same
- Appearance [6, 9]: Off-white
- Content [6, 9]: 99.3%
- DSC [6, 9]: 162.27 °C
- Moisture [6, 9]: 0.11%
- Total related substance [6, 9]: 0.11%
- XRD [6, 9]: Same
- Appearance ([6]; 40° C. RH 75% 1M, Opened): Off-white
- Content ([6]; 40° C. RH 75% 1M, Opened): 100.8%
- DSC ([6]; 40° C. RH 75% 1M, Opened): 162.29 °C
- Moisture ([6]; 40° C. RH 75% 1M, Opened): 0.026%
- Total related substance ([6]; 40° C. RH 75% 1M, Opened): 0.10%
- XRD ([6]; 40° C. RH 75% 1M, Opened): Same
- Appearance [6, 10]: Off-white
- Content [6, 10]: 101.0%
- DSC [6, 10]: 162.18 °C
- Moisture [6, 10]: 0.033%
- Total related substance [6, 10]: 0.10%
- XRD [6, 10]: Same
- Appearance [6, 11]: Off-white
- Content [6, 11]: 101.0%
- DSC [6, 11]: 162.35 °C
- Moisture [6, 11]: 0.036%
- Total related substance [6, 11]: 0.10%
- XRD [6, 11]: Same
- Appearance ([6]; 60° C. 10 days, Opened): Off-white
- Content ([6]; 60° C. 10 days, Opened): 99.8%
- DSC ([6]; 60° C. 10 days, Opened): 162.24 °C
- Moisture ([6]; 60° C. 10 days, Opened): 0.18%
- Total related substance ([6]; 60° C. 10 days, Opened): 0.11%
- XRD ([6]; 60° C. 10 days, Opened): Same
- Appearance [6, 12]: Off-white
- Content [6, 12]: 100.0%
- DSC [6, 12]: 162.26 °C
- Moisture [6, 12]: 0.15%
- Total related substance [6, 12]: 0.11%
- XRD [6, 12]: Same
- Appearance [6, 13]: Off-white
- Content [6, 13]: 99.7%
- DSC [6, 13]: 162.23 °C
- Moisture [6, 13]: 0.13%
- Total related substance [6, 13]: 0.10%
- XRD [6, 13]: Same
Compound: C[C@@H]1COc2ncc(F)cc2[C@H]2CCCN2c2ccc3ncn(c3n2)C(=O)N1 [Crystal form II, (2^2R,6R)-3^5-fluoro-6-methyl-1^3H-4-oxa-7-aza-1(5,3)-imidazo[4,5-b]pyridina-3(3,2)-pyridina-2(1,2)-p yrrolidinacyclooctaphan-8-one]
- stability of the crystal form (in words) ([6]; 60° C. 10 days, 25° C. RH92.5% 10 days, 40° C. RH75% 1 month, opened/closed package): the stability of the crystal form is good

Compound: C[C@@H]1CCc2ncc(F)cc2[C@H]2CCCN2c2ccn3ncc(c3n2)C(=O)N1 [LOXO-195, reference compound]
- T/C ([1]; experiment 1, 3 mg/Kg): 93.6%
- TGI ([1]; experiment 1, 3 mg/Kg): 6.4%
- T/C ([1]; experiment 1, 10 mg/Kg): 63.1%
- TGI ([1]; experiment 1, 10 mg/Kg): 36.9%
- T/C ([1]; experiment 2, 30 mg/Kg): 0%
- TGI ([1]; experiment 2, 30 mg/Kg): 100%
